Here are results for 20 compounds from patent US8367644B2, “Methods and compounds useful to induce apoptosis in cancer cells” (The Burnham Institute, priority 2003, dated 2013).

Read-outs that look alike come from different tables or passages of the source. Where only a bound is given, the exact number is not on record here.

The test system of data set [1] is MCF7 cell line (high expressor of Bcl-2/Bcl-xL). Kind of data set: XTT dye reduction cell viability assay, MCF7.
Procedure: (§1) To evaluate the cytotoxic activity of our compounds on human tumors cells, we tested their biological activities using XTT dye reduction assays using two breast cancer cell lines: MCF7 (high expressor of Bcl-2/Bcl-xL) and ZR75-1 (low expressor of Bcl-2/Bcl-xL).
The effects of the compounds studied in this paper on viability of tumor cells in culture were monitored by using XTT (Weislow et al., J. Natl. Cancer Inst., 81:577 (1989)) assays with MCF7 and ZR75-1 cell lines. MCF7 cells were grown in DMEM containing 10% fetal bovine serum, penicillin/streptomycin, supplemented with 10^−10 M insulin, 1 mM sodium pyruvate and glutamine. ZR75-1 cells were grown in RPMI containing 10% fetal bovine serum, penicillin/streptomycin, supplemented with HEPES buffer, 1 mM sodium pyruvate and glutamine. Cells were regularly tested for mycoplasma contamination. Cells were seeded triplicates at an initial cell density of 1,000 cells per well. Blank wells received no cells. […] Relative numbers of viable cells was determined by XTT assay. […] Then, the contents of each plate were mixed and optical densities were determined at a wavelength of 450 nm (OD450). Net OD450 was determined after subtracting OD450 of blank wells. […]
Data set [2] concerns ZR75-1 cell line (low expressor of Bcl-2/Bcl-xL). Kind of data set: XTT dye reduction cell viability assay, ZR75-1. The following applies: ZR75-1, XTT; for IC50: read-out: IC50, cell viability, three days.
Procedure: as §1
(§2) The effects of the compounds studied in this paper on viability of tumor cells in culture were monitored by using XTT (Weislow et al., J. Natl. Cancer Inst., 81:577 (1989)) assays with MCF7 and ZR75-1 cell lines. MCF7 cells were grown in DMEM containing 10% fetal bovine serum, penicillin/streptomycin, supplemented with 10^−10 M insulin, 1 mM sodium pyruvate and glutamine. ZR75-1 cells were grown in RPMI containing 10% fetal bovine serum, penicillin/streptomycin, supplemented with HEPES buffer, 1 mM sodium pyruvate and glutamine. Cells were regularly tested for mycoplasma contamination. Cells were seeded triplicates at an initial cell density of 1,000 cells per well. Blank wells received no cells. […] Relative numbers of viable cells was determined by XTT assay. Briefly, in a 96-well plate, we added 50 μl of a mixture of 1 mg/ml of XTT (Weislow et al., J. Natl. Cancer Inst., 81:577 (1989)) (2,3-bis(2-methoxy-4-nitro-5-sulfophenyl)-5-[(phenylamino)carbonyl]-2H-tetrazolium hydroxide) (Polysciences, Washington, Pa.) containing 0.025 mM PMS (phenazine methosulfate) to each well. The 96-well plates were re-incubated for an additional 4 hours to allow for XTT formazan production. Then, the contents of each plate were mixed and optical densities were determined at a wavelength of 450 nm (OD450). Net OD450 was determined after subtracting OD450 of blank wells. Low-passage HeLa cells (between passage number 10 and 20) were transfected with pcDNA3-Bcl-xL or control pcDNA3 plasmids using Lipofectamine Plus reagent (Invitrogen) and selected in medium containing 800 μg/ml of G418. Immunoblot analysis of Bcl-xL was accomplished as described (Krajanski 1996-Cancer Res) HeLa-transfectants were treated with various doses of Gossypol, Purpurogallin, and its derivatives (0, 1, 3, 10 and 100 μM).
A further data set addresses T1, Bcl-xL (Homo sapiens, UniProt Q07817).
T1 construct: made in house
Kind of data set: Fluorescence polarization-based competitive binding assay (FPA) with fluorescein-labeled Bad peptide.

The conditions of data set [3]: previous cell-based assays; cited from earlier work.
Data set [4] in a line: Combination of Apogossypol with fludarabine (FIG. 6, 7). It is filed as cell-based.
Another data set deals with HeLa cells. Briefly: HeLa cells viability assay. It is filed as cell-based. The following applies: Homo sapiens, read-out: IC50 (μM) HeLa.
[5] abbreviates: Table 1, green tea extracts, target Bcl-xL inferred from text and figure legends, read-out: IC50.
Setting [6] is: Table 4, Purpurogallin derivatives, read-out: IC50 (μM) (Bcl-xL).
Where [7] appears, read: Table 2, black tea extracts, target Bcl-xL inferred from text and figure legends, read-out: IC50.

T1 sequence (Q07817 whole entry): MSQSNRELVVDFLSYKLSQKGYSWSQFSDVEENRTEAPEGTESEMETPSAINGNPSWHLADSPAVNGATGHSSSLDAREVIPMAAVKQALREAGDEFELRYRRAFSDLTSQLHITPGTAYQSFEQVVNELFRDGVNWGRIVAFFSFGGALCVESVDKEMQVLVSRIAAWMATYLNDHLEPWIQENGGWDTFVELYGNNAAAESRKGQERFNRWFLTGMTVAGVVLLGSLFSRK
Procedure for HeLa cells: as §1, §2

For `Cc1cc2c(C(C)C)c(O)c(O)c(C=O)c2c(O)c1-c1c(C)cc2c(C(C)C)c(O)c(O)c(C=O)c2c1O` (racemic) [Gossypol], the IC50 in data set [1] (read-out: IC50, cell viability, three days) worked out at 13.2 µM; in data set [2], 8.4 µM.
As for `Oc1cc(O)c2c(c1)O[C@@H](c1ccc(O)c(O)c1)[C@@H](O)C2` [(+) Epicatechin (EC), (+) Epicatechin], on Bcl-xL (setting [5]), the IC50 is over 100 µM.
On to `Oc1cc(O)c2c(c1)O[C@@H](c1ccc(O)c(O)c1)[C@H](O)C2` [(−) Catechin (C), (−) Catechin], for which the IC50 on Bcl-xL (setting [5]) was over 100 µM.
Regarding `O=C(O[C@@H]1Cc2c(O)cc(O)cc2O[C@H]1c1ccc(O)c(O)c1)c1cc(O)c(O)c(O)c1` [(−) Catechin-3-gallate (CG), (−) Catechin-3-gallate], the IC50 at Bcl-xL (setting [5]) stood at 0.29 µM.
On to `O=C(O[C@@H]1Cc2c(O)cc(O)cc2O[C@@H]1c1ccc(O)c(O)c1)c1cc(O)c(O)c(O)c1` [(−) Epicatechin-3-gallate (ECG), (−) Epicatechin-3-gallate], for which, on Bcl-xL (setting [5]), the IC50 is 0.24 µM.
In the case of `Oc1cc(O)c2c(c1)O[C@H](c1cc(O)c(O)c(O)c1)[C@H](O)C2` [(−) Epigallocatechin (EGC), (−) Epigallocatechin], the IC50 at Bcl-xL (setting [5]) was over 100 µM.
For the compound `O=C(O[C@@H]1Cc2c(O)cc(O)cc2O[C@@H]1c1cc(O)c(O)c(O)c1)c1cc(O)c(O)c(O)c1` [(−) Epigallocatechin-3-gallate (EGCG), (−) Epigallocatechin-3-gallate], the IC50 on Bcl-xL (setting [5]) turned out to be 0.98 µM.
Same read-out and setting: for `Oc1cc(O)c2c(c1)O[C@@H](c1cc(O)c(O)c(O)c1)[C@H](O)C2` [(−) Gallocatechin (GC), (−) Gallocatechin] the value was over 100 µM; for `O=C(O[C@@H]1Cc2c(O)cc(O)cc2O[C@H]1c1cc(O)c(O)c(O)c1)c1cc(O)c(O)c(O)c1` [(−) Gallocatechin-3-gallate (GCG), (−) Gallocatechin-3-gallate], 0.63 µM.
In the case of `Cc1cc2c(C(C)C)c(O)c(O)c(C=O)c2c(O)c1-c1c(C)cc2c(C(C)C)c(O)c(O)c(C=O)c2c1O` [(−) Gossypol], the “effectiveness as a cytotoxic agent relative to (+) Gossypol” value in data set [3] is “ten times more effective than (+) Gossypol”.
`Cc1cc2c(C(C)C)c(O)c(O)cc2c(O)c1-c1c(C)cc2c(C(C)C)c(O)c(O)cc2c1O` [Apogossypol (6C1), Apogossypol]: in data set [4] (FIG. 6), the “effect in combination with fludarabine (F-ara-A)” value was “additive effect”. Also, in data set [4] (FIG. 7), the “effect in combination with F-ara-A” value was “synergistic Effect”.
`CCOC(=O)c1cc(O)c(=O)c2cc(O)c(O)cc2c1` [Compound 5D1]: the IC50 at Bcl-xL (setting [6]) was 73 µM; with HeLa cells (Table 4, HeLa cells viability), 51.5 µM; in data set [2] it was about 50 µM.
Turning to `COc1cc2cccc(OC)c(=O)c2c(OC)c1OC` [Compound 6A1], the IC50 on Bcl-xL (setting [6]) is over 100 µM; with HeLa cells (Table 4, HeLa cells viability), over 100 µM.
Consider `COc1c(O)cc2cccc(OC)c(=O)c2c1OC` [Compound 6A7], for which the IC50 at Bcl-xL and in the data set on HeLa cells (HeLa) was over 100 µM each time.
On to `O=C(O)c1cc(O)c(=O)c2cc(O)c(O)cc2c1` [Compound 1142], for which the IC50 on Bcl-xL (setting [6]) amounted to 7.4 µM; in the data set on HeLa cells (Table 4, HeLa cells viability), 22.9 µM.
Take `COC(=O)c1cc(O)c(=O)c2cc(O)c(O)cc2c1` [Compound 1163]: the concentration for half-maximal inhibition (IC50) at Bcl-xL (setting [6]) was determined as 2.6 µM.
`O=c1c(O)cccc2cc(O)c(O)c(O)c12` [Purpurogallin]: the “competition for the BH3-binding pocket” value on Bcl-xL (FIG. 1 legend) is recorded as “compete for the BH3-binding pocket of Bcl-xL”. In addition, the half-maximal inhibitory concentration (IC50) with HeLa cells (Table 4, HeLa cells viability) turned out to be 6.5 µM. Also, the cytotoxic activity entry in data set [1] and in data set [2] was “did not show appreciable activity” in each case.
With `O=c1c(O)cccc2c([C@H]3Oc4cc(O)cc(O)c4C[C@H]3O)cc(O)c(O)c12` [Theaflavanin], the IC50 on Bcl-xL (setting [7]) came out at 0.55 µM.
Consider `O=C(O[C@H]1Cc2c(O)cc(O)cc2OC1c1cc(O)c(=O)c2c(O)c(O)cc([C@H]3Oc4cc(O)cc(O)c4C[C@H]3O)c2c1)c1cc(O)c(O)c(O)c1` (stereo partly drawn) [Theaflavin-3′-gallate], for which the half-maximal inhibitory concentration (IC50) on Bcl-xL (setting [7]) stood at 0.6 µM.
Take `O=c1c(O)cc([C@H]2Oc3cc(O)cc(O)c3C[C@H]2O)cc2c([C@H]3Oc4cc(O)cc(O)c4C[C@H]3O)cc(O)c(O)c12` [Theaflavin]: the IC50 at Bcl-xL (setting [7]) amounted to 1.05 µM.
